Measured values reported in patent US6897298B2, “Method for extracting a compound from a ginseng spp. plant, ginseng or pseudo-ginseng” (priority 2001, dated 2005).
Like-named read-outs stand apart in the source and are kept apart here.

Tests used:
[1] = test system: cerebral arteria embolisms/reperfusion injury rat model; assay: Pathological exam of nerve cells and nerve fibers (HE, myelin staining); type: in vivo; conditions: iv 50 mg/kg, 10 mg/kg and 2 mg/kg; dosage-dependent
Procedure: (§1) Prepare cerebral arteria embolisms/reperfusion injury rat model according to Longna method. To bring the animal into a state of narcosis, give an intravenous injection of urethane (0.4 ml/100 g weight). Maintain body temperature of the rat at 37±0.5° C. (anal temperature). Let the rat lie on a plate with face toward the ceiling. Make a cut at the right middle of its neck. By means of microsurgery techniques, separate left neck communis and its branches. Isolate arteria carotis externa. By means of electric solidification, cut off occipital arteria, thyroid superia gland arteria, and arteria phyrynix externa, all of which are setting out from arteria carotis externa. Isolate arteria carotis externa further towards the head end. Tie the arteria carotis externa at a place as far as possible. Clamp the beginning part of the arteria carotis externa to make it close with an artery clamp. Tie a loose knot (with 5-0 silk thread going through the arteria carotis externa) at a place between the artery clamp and the tying thread. At a place close to the knot, cut to block the arteria carotis externa. Put into the arteria carotis externa a 3-0 nylon thread, which is 5 cm long and has a drumstick-like head. Tie a fast knot on the silk thread on the arteria crotis externa to avoid bleeding. Remove the arteria clamp. Push the nylon thread slowly into the arteria carotis externa. […]

[2] = test system: cerebral ischemia/reperfusion injury rats; assay: MDA content in cerebral tissue homogenate (TBA method); type: in vivo, rat; conditions: Compound (I) 50 mg/kg, Nimodipine 40 μg/kg iv; 5 h after reperfusion; salt-water group 87.7±27.5; p>0.05 vs normal group
Rats = conditions: for toxicity finding: iv 14 days
[3] = test system: cerebral arteria embolisms/reperfusion injury rat model; assay: Measurement of water content in brain tissue; type: in vivo; conditions: Compound (I) intravenous injection
[4] = test system: cerebral ischemia/reperfusion injury rats; assay: SOD activity in cerebral tissue homogenate (pyrogallol self-oxidation method); type: in vivo, rat; conditions: Compound (I) 50 mg/kg, Nimodipine 40 μg/kg iv; 5 h after reperfusion; normal 70.30±24.7 u/g, salt-water 46.7±16.6 u/g
Procedure: 38 rats were used. After making cerebral ischemia/reperfusion injury, the rats were randomly divided into groups of contrast (equal volume of physiological salt-water), Nimodipine treatment (40 μg/kg), and Compound (I) treatment (50 mg/kg). […] After another 5 minutes, drug was given iv under tongue. 60 minutes after cerebral ischemia was made, reperfusion was made. After another 5 hours, rat brains were stripped off rapidly according to Gotoh Method. Right and left brain hemispheres were weighed respectively, and were kept in fridge at −70° C.
The tissue to be measured (about 0.3˜0.5) were washed clean with physiological salt-water. Then cold distilled water was used to prepare homogenate on a glass blender. Then centrifugal machine was set at 1,500 rpm to work for 15 minutes, the temperature being 0° C. […]
(1) SOD measurement (pyrogallol self-oxidation method): Take a 15 ml test tube. […] Change of absorbance is measured under conditions of: ultra-violet spectrophotometer (UV 1601 PC, Shimatsu Co., Japan), wavelength of 325 nm, and slit of 2. Then activity units are calculated according to the following formula: Tissue homogenate SOD(u/g cerebral tissue)=(control tube−sample tube)/control tube/0.5×1/cerebral tissue weight (g)

[5] = Physical and chemical properties: solubility; type: physicochemical; conditions: substance obtained in Example 1
Procedure: Physical and chemical property tests and element analysis were carried out for the substance. Also done were its mass spectra, infrared and ultraviolet spectrum, ^1H and ^13C nuclear magnetic resonance tests. The conditions and results were:
Physical and chemical properties: white or a little yellow powder. Melting point—209˜214° C.

[6] = Three kinds of experiments (disability, cancer, mutation)
Description: Therefore, its cure effects are good.

[7] = test system: cerebral arteria embolisms/reperfusion injury rat model; assay: Scanning record of electroencephalogram after cerebral ischemia/reperfusion; type: in vivo; conditions: 1 h block
Procedure: as §1, with “externa.” for “externa. Put into the arteria carotis externa a 3-0 nylon thread, which is 5 cm long and has a drumstick-like head. Tie a fast knot on the silk thread on the arteria crotis externa to avoid bleeding. Remove the arteria clamp. Push the nylon thread slowly into the arteria carotis externa.”
One needle-type electrode was placed at top forehead. […] Electroencephalogram change outside of skin before and after obstruction was recorded with 8-lead physiological recorder made by Japan Optical-Electric Co.

[8] = test system: cerebral arteria embolisms/reperfusion injury rat model; assay: Behavior change score (Longa method); type: in vivo; conditions: 5 hours after reperfusion
Procedure: as §1

Acute toxicity test = conditions: in vivo, Mouse
Description: Results of acute toxicity test for Compound (I) were: […]

[9] = test system: cerebral arteria embolisms/reperfusion injury rat model; assay: Measurement of area of cerebral embolisms (TTC staining) after cerebral ischemia/reperfusion; type: in vivo
Procedure: as §1, with “thread.” for “thread. At a place close to the knot, cut to block the arteria carotis externa. Put into the arteria carotis externa a 3-0 nylon thread, which is 5 cm long and has a drumstick-like head. Tie a fast knot on the silk thread on the arteria crotis externa to avoid bleeding. Remove the arteria clamp. Push the nylon thread slowly into the arteria carotis externa.”
Open the cranium and take the whole brain. […] The area of obstructed cerebral tissue was measured with a fully automatic image analysis system (Model IPAS-C, Kontror Co, Germany). […] For this experiment, the average value of those measured of slices 2 and 3 were taken as the measured result for each animal's area of obstruction. […]

For `CC(C)=CCC[C@](C)(OCC1OC(CO)C(O)C(O)C1O)C1CC[C@]2(C)C1[C@H](O)CC1[C@@]3(C)CC[C@H](OC4OC(CO)C(O)C(O)C4OC4OC(CO)C(O)C(O)C4O)C(C)(C)C3CC[C@]12C` (stereo partly drawn) [Compound (I), 20-(S)-protopanaxadiol-3-[O-β-D-glucopyranosyl (1→2)-β-D-glucopyranosyl]-20-O-β-D-glucopyranoside], the “degree of denaturalization of nerve fibers” value [1] was “could relieve the degree of denaturalization of nerve fibers”, the “number of nerve cells of necrosis” value [1] was “could decrease the number of nerve cells of necrosis” and the MDA content [2] was 65.8±19 nmol/mg tissue weight. The toxicity finding (Rats; 100 mg/kg) was “poisonous dosage”, the toxicity finding (Rats; 10 and 30 mg/kg) was “minor local stimulation” and the main toxic finding (Rats; iv injection for 14 days, injury correlated positively with dosage) was “inflammation of tail vein inner membrane”. For the same compound, the “water content increase of cerebral tissue in blocked area” value [3] was “could significantly lower water content increase of cerebral tissue in blocked area”, the “SOD activity compared with normal contrast group (false surgery)” value [4] was “no significant statistics difference” and the solubility [5] was “Very easy to dissolve in lower alcohol, acetone, chloroform, and hot water”. The “causes disability, cancer, and mutation” value [6] was “does not have these side effects”, the amplitude of electroencephalogram ([7]; 2 mg/kg dosage, 5 h after reperfusion) was “tendency of improvement of electroencephalogram, but there was no significant statistics difference” and the amplitude of electroencephalogram ([7]; 50 mg/kg and 10 mg/kg, 5 h after reperfusion (p<0.01)) was “could improve electroencephalogram significantly”. For the same compound, the “behavior obstruction caused by cerebral injuries” value [8] was “could be significantly relieved”, the LD50 (Acute toxicity test; im, intramuscular injection, 95% confidence margin 564.77˜603.79 mg/kg) was 584 mg/kg and the LD50 (Acute toxicity test; intravenous injection, 95% confidence margin 346.01˜366.64 mg/kg) was 356 mg/kg. The “embolism (infarction) area of cerebral tissue” value ([9]; Compound (I) 2˜50 mg/kg iv, 1 h ischemia, 5 h after reperfusion, dosage dependent) was “could decrease embolism area of cerebellum tissue” and the “cure effects compared with Nimodipine” value ([9]; iv 50, 10 and 2 mg/kg, overall conclusion over all indexes) was “better than that of active contrast drug Nimodipine”.

In the case of `COCCOC(=O)C1=C(C)NC(C)=C(C(=O)OC(C)C)C1c1cccc([N+](=O)[O-])c1` (stereo not shown) [Nimodipine, reference compound], the MDA content [2] was 67.0±21.8 nmol/mg tissue weight and the “behavior scores (0-5)” value ([8]; salt-water contrast group 3.3±1.0, p>0.05) was 2.9±1.2 scores.
